Data as given in patent publication US9126947B2, “Substituted pyridazine carboxamide compounds” (Xcovery Holding Company LLC, priority 2010, dated 2015).
One block for each molecule: values may come before it.

What was measured:
[1] = tested on: H3122 cells; assay: Cell apoptosis assay of tumor cells with ALK fusion proteins; assay type: cell-based; details: compared with PF-2341066 at the same concentration, 72 h, FIG. 1
Protocol: For apoptosis experiments, cells were seeded in 12 well plates at 25% confluency and treated in triplicate with ALK TKI. At 72 h post drug addition, cells were collected, washed in PBS, and stained with annexin V and propidium iodide according to the manufacturer's instructions (Vybrant Apooptosis Assay Kit, Invitrogen, Carlsbad, Calif.). Data were collected on a FACSCanto II (BD Biosciences, San Jose, Calif.) and processed using WinList flow cytometry analysis software (Verity Software, Topsham, Me.).

[2] = tested on: H2228 tumor cells; assay: Cell viability assay of tumor cells with ALK fusion proteins (H2228); assay type: cell-based; details: Homo sapiens, NCI-H2228; H2228, 72 hours post drug addition; read-out: Inhibition of H2228 tumor cell growth (IC50)
Protocol: (§1) At 72 hours post drug addition, Cell Titer Blue Reagent (Promega, Madison, Wis.) was added and fluorescence was measured on a Spectramax spectrophotometer (Molecular Devices, Sunnyvale, Calif.) according to the manufacturer's instructions. All experimental points were set up in hextuplicate replicates and were performed at least two independent times. IC50's were calculated using GraphPad Prism version 5 for Windows. The curves were fit using a nonlinear regression model with a log (inhibitor) vs. response formula.

[3] = molecular target: ALK (Homo sapiens (Human), UniProt Q9UM73); assay: Ambit kinase binding assay (ALK); details: read-out: ALK inhibitory activities in the Ambit assay (IC50)
Protocol: For most assays, kinase-tagged T7 phage strains were grown in parallel in 24-well blocks in an E. coli host derived from the BL21 strain. E. coli were grown to log-phase and infected with T7 phage from a frozen stock (multiplicity of infection 0.1) and incubated with shaking at 32° C. until lysis (˜90 minutes). The lysates were centrifuged (6,000×g) and filtered ([…]) to remove cell debris. The remaining kinases were produced in HEK-293 cells and subsequently tagged with DNA for qPCR detection. […] The liganded beads were blocked with excess biotin and washed with blocking buffer (SeaBlock (Pierce), 1% BSA, 0.05% Tween 20, 1 mM DTT) to remove unbound ligand and to reduce non-specific phage binding. […] Test compounds were prepared as 40× stocks in 100% DMSO and directly diluted into the assay. All reactions were performed in polypropylene 384-well plates in a final volume of 0.04 ml. […] The kinase concentration in the eluates was measured by qPCR.

[4] = tested on: H3122 tumor cells; assay: Cell viability assay of tumor cells with ALK fusion proteins (H3122); assay type: cell-based; details: Homo sapiens, NCI-H3122; H3122, 72 hours post drug addition; read-out: Inhibition of H3122 tumor cell growth (IC50)
Protocol: as §1

[5] = Human microsomal stability; assay type: in vitro ADME; details: compared with Example 25 of WO 2009/154769; 1 μM, 1 mg/mL microsomes
Protocol: Pooled human liver microsomes (1 mg/mL) are incubated at 37° C. in phosphate buffer (pH 7.4) with the test compound (1 μM). The reaction is started with the addition of NADPH. (1 mM final concentration). Incubations are stopped after 0, 5, 10, 20, 40, 60 minutes with the addition of organic solvent. Quenched samples are analyzed for unchanged test compound by LC/MS/MS detection. Percent turnover is determined by the ratio of the amount (peak area) of unchanged test compound remaining in incubated samples to the amount of unchanged test compound in non-incubated samples (0 minutes). Half-life is calculated based on the percent turnover data.

[6] = Brain penetration; assay type: in vivo; details: mice, two hours after dosing; compared with Example 1
Protocol: To determine if a compound can cross the blood-brain-barrier (BBB), mice are dosed with the test compound. Two hours after dosing, mice are sacrificed and blood and brain tissues are collected and analyzed for test compound concentration. Brain penetration is defined as ratio of compound concentration in the brain tissues to that in plasma.

[7] = tested on: SH-SY5Y intracranial tumor; assay: SH-SY5Y intracranial tumor model; assay type: in vivo, Balb/C nude mice; details: oral gavage, vehicle 25 days
Protocol: Balb/C nude mice were anesthetized by i.p. injection of pentobarbital sodium (100 mg/kg body weight). One million SH-SY5Y cells in a volume of 10 μl full-culture medium were injected into the caudate putamen region using a small animal stereotactic apparatus. On the 7th day after implantation, the tumor-bearing mice were assigned into 4 groups, PF-1066, Example 18 low dose, Example 18 high dose, and vehicle were given twice daily (BID) by oral gavage, treatment was stopped until the animal is dead. Animal survival and body weight were observed and recorded.

[8] = molecular target: c-Met (Homo sapiens (Human), UniProt P08581); assay: Ambit kinase binding assay (c-Met)
Protocol: Assays were performed as described in Fabian et al. (2005) Nature Biotechnology, vol. 23, p. 329 and in Karaman et al. (2008) Nature Biotechnology, vol. 26, p. 127.
For most assays, kinase-tagged T7 phage strains were grown in parallel in 24-well blocks in an E. coli host derived from the BL21 strain. E. coli were grown to log-phase and infected with T7 phage from a frozen stock (multiplicity of infection 0.1) and incubated with shaking at 32° C. until lysis (˜90 minutes). The lysates were centrifuged (6,000×g) and filtered ([…]) to remove cell debris. The remaining kinases were produced in HEK-293 cells and subsequently tagged with DNA for qPCR detection. Streptavidin-coated magnetic beads were treated with biotinylated small molecule ligands for 30 minutes at room temperature to generate affinity resins for kinase assays. The liganded beads were blocked with excess biotin and washed with blocking buffer (SeaBlock (Pierce), 1% BSA, 0.05% Tween 20, 1 mM DTT) to remove unbound ligand and to reduce non-specific phage binding. […] Test compounds were prepared as 40× stocks in 100% DMSO and directly diluted into the assay. All reactions were performed in polypropylene 384-well plates in a final volume of 0.04 ml. The assay plates were incubated at room temperature with shaking for 1 hour and the affinity beads were washed with wash buffer (1×PBS, 0.05% Tween 20). The beads were then re-suspended in elution buffer (1×PBS, 0.05% Tween 20, 0.5 mM non-biotinylated affinity ligand) and incubated at room temperature with shaking for 30 minutes. The kinase concentration in the eluates was measured by qPCR.

ALK, sequence (Q9UM73 19-1620): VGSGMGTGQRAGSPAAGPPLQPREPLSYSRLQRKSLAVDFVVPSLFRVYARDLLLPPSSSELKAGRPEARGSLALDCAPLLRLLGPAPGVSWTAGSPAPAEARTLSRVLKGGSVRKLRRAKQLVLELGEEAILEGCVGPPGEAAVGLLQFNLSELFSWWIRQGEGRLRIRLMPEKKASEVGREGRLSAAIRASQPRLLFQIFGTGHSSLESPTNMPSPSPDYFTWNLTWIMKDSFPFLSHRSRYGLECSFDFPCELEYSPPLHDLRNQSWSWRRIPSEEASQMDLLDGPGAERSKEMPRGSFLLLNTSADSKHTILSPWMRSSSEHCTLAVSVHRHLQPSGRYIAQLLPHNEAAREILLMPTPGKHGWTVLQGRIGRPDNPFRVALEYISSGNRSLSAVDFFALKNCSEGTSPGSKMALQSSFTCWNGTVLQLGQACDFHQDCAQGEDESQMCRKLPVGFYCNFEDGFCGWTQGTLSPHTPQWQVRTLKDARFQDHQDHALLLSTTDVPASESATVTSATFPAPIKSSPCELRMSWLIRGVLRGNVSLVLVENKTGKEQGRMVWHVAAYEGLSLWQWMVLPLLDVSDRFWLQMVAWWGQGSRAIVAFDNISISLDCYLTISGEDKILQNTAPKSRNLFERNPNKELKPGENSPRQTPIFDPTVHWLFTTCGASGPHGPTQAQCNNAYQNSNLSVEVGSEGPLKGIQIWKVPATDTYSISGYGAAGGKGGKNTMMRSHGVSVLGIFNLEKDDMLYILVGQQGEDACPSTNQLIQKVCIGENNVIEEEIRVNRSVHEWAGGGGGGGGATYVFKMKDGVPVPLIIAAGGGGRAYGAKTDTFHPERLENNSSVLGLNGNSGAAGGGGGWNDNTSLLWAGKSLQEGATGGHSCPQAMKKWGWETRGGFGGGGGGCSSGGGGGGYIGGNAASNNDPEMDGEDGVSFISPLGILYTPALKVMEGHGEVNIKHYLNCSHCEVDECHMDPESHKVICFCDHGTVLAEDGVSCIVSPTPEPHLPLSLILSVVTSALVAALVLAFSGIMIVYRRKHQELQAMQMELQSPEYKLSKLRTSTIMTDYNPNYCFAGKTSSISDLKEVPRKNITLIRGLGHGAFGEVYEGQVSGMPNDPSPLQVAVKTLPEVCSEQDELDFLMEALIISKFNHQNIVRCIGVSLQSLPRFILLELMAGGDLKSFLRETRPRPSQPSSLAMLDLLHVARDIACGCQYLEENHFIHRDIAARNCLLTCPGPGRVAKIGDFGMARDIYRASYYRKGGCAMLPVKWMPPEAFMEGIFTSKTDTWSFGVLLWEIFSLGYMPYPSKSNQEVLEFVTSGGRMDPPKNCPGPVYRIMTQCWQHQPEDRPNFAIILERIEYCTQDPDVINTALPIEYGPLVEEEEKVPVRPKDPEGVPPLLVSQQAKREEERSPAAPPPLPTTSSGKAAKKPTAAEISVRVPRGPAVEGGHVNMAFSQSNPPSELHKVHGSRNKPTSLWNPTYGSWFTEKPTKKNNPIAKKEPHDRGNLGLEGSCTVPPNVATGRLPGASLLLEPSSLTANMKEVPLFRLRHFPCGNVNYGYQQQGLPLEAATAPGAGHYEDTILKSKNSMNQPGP
c-Met, sequence (P08581 25-1390): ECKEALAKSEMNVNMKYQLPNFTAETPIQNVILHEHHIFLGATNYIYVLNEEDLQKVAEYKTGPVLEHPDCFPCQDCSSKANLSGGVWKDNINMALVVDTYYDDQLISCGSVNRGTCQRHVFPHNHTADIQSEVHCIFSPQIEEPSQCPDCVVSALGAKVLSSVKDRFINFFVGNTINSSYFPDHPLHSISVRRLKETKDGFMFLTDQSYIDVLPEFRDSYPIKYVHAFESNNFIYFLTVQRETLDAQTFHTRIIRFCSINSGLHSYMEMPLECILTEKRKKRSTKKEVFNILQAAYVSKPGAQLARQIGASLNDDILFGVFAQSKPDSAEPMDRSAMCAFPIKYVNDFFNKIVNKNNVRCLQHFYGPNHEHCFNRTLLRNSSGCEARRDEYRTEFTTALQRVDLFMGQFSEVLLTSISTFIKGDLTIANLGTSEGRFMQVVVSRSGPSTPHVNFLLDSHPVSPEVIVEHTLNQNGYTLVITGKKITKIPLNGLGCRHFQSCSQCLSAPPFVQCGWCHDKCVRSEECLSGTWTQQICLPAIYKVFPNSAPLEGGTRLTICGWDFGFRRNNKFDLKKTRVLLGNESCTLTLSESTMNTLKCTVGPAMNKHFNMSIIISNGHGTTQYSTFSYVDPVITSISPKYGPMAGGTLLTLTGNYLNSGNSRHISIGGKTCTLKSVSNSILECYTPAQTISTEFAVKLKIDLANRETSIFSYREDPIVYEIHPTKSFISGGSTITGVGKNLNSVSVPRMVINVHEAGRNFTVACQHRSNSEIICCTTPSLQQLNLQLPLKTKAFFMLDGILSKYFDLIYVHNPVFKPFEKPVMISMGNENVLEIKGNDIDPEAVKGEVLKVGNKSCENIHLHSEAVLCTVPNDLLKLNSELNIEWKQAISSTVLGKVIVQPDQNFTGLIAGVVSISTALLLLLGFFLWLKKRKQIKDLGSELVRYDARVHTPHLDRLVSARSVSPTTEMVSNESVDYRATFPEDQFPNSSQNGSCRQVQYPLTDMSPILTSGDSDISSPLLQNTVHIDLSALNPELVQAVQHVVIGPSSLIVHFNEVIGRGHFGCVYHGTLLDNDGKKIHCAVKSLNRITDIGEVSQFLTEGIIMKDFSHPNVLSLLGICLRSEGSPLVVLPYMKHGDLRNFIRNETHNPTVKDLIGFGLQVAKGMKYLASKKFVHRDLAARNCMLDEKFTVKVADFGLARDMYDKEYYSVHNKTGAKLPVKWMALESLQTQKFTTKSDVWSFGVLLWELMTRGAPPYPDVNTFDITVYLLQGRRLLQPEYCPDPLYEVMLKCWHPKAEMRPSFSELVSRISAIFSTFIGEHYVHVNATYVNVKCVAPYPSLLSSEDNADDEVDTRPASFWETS

- IC50 [2]: < 100 nM
- IC50 [3]: < 1 nM
- IC50 [4]: < 50 nM
Compound: C[C@@H](Oc1cc(C(=O)Nc2ccc(C(=O)N3CCN(C)CC3)cc2)nnc1N)c1c(Cl)ccc(F)c1Cl [Example 1, {5-[(1R)-1-(2,6-dichloro-3-fluorophenyl)ethoxy]-6-aminopyridazin-3-yl}-N-{4-[(4-methylpiperazinyl)carbonyl]phenyl}carboxamide]
- Induction of apoptosis in H3122 cells [1]: more effective

- IC50 [3]: > 50 nM
Compound: C[C@H](Oc1cc(C(=O)Nc2ccc(C(=O)N3CCN(C)CC3)cc2)nnc1N)c1c(Cl)ccc(F)c1Cl [Example 2, {5-[(1S)-1-(2,6-dichloro-3-fluorophenyl)ethoxy]-6-aminopyridazin-3-yl}-N-{4-[(4-methylpiperazinyl)carbonyl]phenyl}carboxamide]

- IC50 [3]: < 1 nM
Compound: C[C@@H](Oc1cc(C(=O)Nc2ccc(C(=O)N3CCN4CCCC4C3)cc2)nnc1N)c1c(Cl)ccc(F)c1Cl (stereo partly drawn) [Example 13, {5-[(1R)-1-(2,6-dichloro-3-fluorophenyl)ethoxy]-6-aminopyridazin-3-yl}-N-{4-[(3,6-diazabicyclo[4.3.0]non-3-yl)carbonyl]phenyl}carboxamide]

- IC50 [3]: < 1 nM
Compound: C[C@@H](Oc1cc(C(=O)Nc2ccc(C(=O)N3CCCN(C)CC3)cc2)nnc1N)c1c(Cl)ccc(F)c1Cl [Example 15, {5-[(1R)-1-(2,6-dichloro-3-fluorophenyl)ethoxy]-6-aminopyridazin-3-yl}-N-{4-[(4-methyl(1,4-diazaperhydroepinyl))carbonyl]phenyl}carboxamide]

- IC50 [2]: < 100 nM
- IC50 [3]: < 1 nM
- Half-life in human liver microsomes [5]: longer half-life
- IC50 [4]: < 30 nM
Compound: C[C@@H](Oc1cc(C(=O)Nc2ccc(C(=O)N3CCCNCC3)cc2)nnc1N)c1c(Cl)ccc(F)c1Cl [Example 16, {5-[(1R)-1-(2,6-dichloro-3-fluorophenyl)ethoxy]-6-aminopyridazin-3-yl}-N-[4-(1,4-diazaperhydroepinylcarbonyl)phenyl]carboxamide]

- IC50 [3]: < 1 nM
Compound: C[C@@H](Oc1cc(C(=O)Nc2ccc(C(=O)N3CCNC(C)(C)C3)cc2)nnc1N)c1c(Cl)ccc(F)c1Cl [Example 17, {5-[(1R)-1-(2,6-dichloro-3-fluorophenyl)ethoxy]-6-aminopyridazin-3-yl}-N-{4-[(3,3-dimethylpiperazinyl)carbonyl]phenyl}carboxamide]

Compound: C[C@@H]1CN(C(=O)c2ccc(NC(=O)c3cc(O[C@H](C)c4c(Cl)ccc(F)c4Cl)c(N)nn3)cc2)C[C@H](C)N1 [Example 18, {5-[(1R)-1-(2,6-dichloro-3-fluorophenyl)ethoxy]-6-aminopyridazin-3-yl}-N-{4-[((3S,5R)-3,5-dimethylpiperazinyl)carbonyl]phenyl}carboxamide]
- IC50 [2]: < 100 nM
- Brain penetration (ratio of concentration in brain tissues to plasma) [6]: higher brain penetration
- IC50 [3]: < 1 nM
- Half-life in human liver microsomes [5]: longer half-life
- IC50 [4]: < 30 nM
- Median survival time (MST) ([7]; 25 mg/kg BID): 25 days
- Median survival time (MST) ([7]; 50 mg/kg BID): 34.5 days

Compound: C[C@@H](Oc1cc(-c2cnn(C3CCNCC3)c2)cnc1N)c1c(Cl)ccc(F)c1Cl [PF-2341066, crizotinib, reference compound]
- Median survival time (MST) ([7]; 50 mg/kg BID): 28 days

- IC50 [8]: < 20 nM
- IC50 [3]: > 10 nM
Compound: CC(Oc1cc(C(=O)Nc2ccncc2)nnc1N)c1c(Cl)ccc(F)c1Cl (centres unmarked) [a, reference compound]

- IC50 [8]: < 20 nM
- IC50 [3]: > 10 nM
Compound: COc1ccc(NC(=O)c2cc(OC(C)c3c(Cl)ccc(F)c3Cl)c(N)nn2)cc1 (centres unmarked) [b, reference compound]

- IC50 [8]: < 20 nM
- IC50 [3]: > 10 nM
Compound: CC(Oc1cc(C(=O)Nc2ccc(N3CCOCC3)cc2)nnc1N)c1c(Cl)ccc(F)c1Cl (centres unmarked) [c, reference compound]
